Experimental data reported in patent US20250099420A1, “SMALL MOLECULE MODULATORS OF GPR139 COMPLEX” (University of Florida Research Foundation, Incorporated, priority 2022, published 2025).
pEC50: −log10 of the molar value. Read-outs that look alike come from different tables or passages of the source.

What was measured:
parental HEK cells = assay: HEK parental Agonist Counterscreen Assay (non-transfected cells); assay type: cell-based; conditions: for Averaged Max % Response (±St. Dev.): activity relative to known control
Source text: The high control for the agonist counterscreen was Forskolin not acetylcholine.

GPR139 = target: T1, GPR139 (Homo sapiens, UniProt Q6DWJ6); assay: GPR139 Agonist titration / agonist counterscreen assay (calcium detection, HEK-GPR139 cells); assay type: cell-based; design: expressed in transfected cells; host or cells: HEK Aequorin cells, Maxcyte transient transfection; conditions: GPR139 Agonist Activity; for pEC50: read-out: EC50; for Averaged Max % Response (±St. Dev.): activity relative to known control
T1 sequence (Q6DWJ6 1-353): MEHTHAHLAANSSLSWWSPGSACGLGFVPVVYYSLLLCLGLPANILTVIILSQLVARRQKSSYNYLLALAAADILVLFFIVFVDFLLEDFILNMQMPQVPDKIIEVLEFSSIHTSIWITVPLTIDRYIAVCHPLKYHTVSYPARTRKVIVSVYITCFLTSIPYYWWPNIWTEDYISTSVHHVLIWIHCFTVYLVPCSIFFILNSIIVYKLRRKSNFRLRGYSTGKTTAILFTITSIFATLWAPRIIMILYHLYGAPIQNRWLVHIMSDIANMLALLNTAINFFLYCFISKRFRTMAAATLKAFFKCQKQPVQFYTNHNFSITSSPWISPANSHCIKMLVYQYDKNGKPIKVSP
Procedure: GPR activity was assessed using a calcium detection assay. […] Negative control samples were treated with DMSO. […] Intracellular calcium was measured using Calcium 5.

[1] = HEK Agonist Activity section of Table 4 (parental HEK counterscreen)
[2] = Homo sapiens, HEK293, HEK Agonist Activity section of Table 4 (parental HEK counterscreen)
[3] = Homo sapiens, HEK293, HEK Agonist Activity, parental non-transfected HEK cells
[4] = values printed in E-notation without unit

SMILES	Lipophilic Efficiency (logD) (parental HEK cells; HEK Agonist Activity section)	Lipophilic Efficiency (logP) (parental HEK cells; HEK Agonist Activity section)	pEC50 (parental HEK cells; [1])	Averaged Max % Response (±St. Dev.) (parental HEK cells; HEK Agonist Activity section)	Efficiency Ligand (GPR139)	Hill Slope (GPR139)	Lipophilic Efficiency (logD) (GPR139)	Lipophilic Efficiency (logP) (GPR139)	pEC50 (GPR139; HEK-GPR139 cells)	Averaged Max % Response (±St. Dev.) (GPR139)	pEC50 (parental HEK cells; [2])	Lipophilic Efficiency (logD) (GPR139; based on logD)	Lipophilic Efficiency (logP) (GPR139; based on logP)	Hill Slope (GPR139; fitted dose-response curve)	Efficiency Ligand (GPR139; ligand efficiency)	pEC50 (GPR139; [4])	further results
COc1ccc2c(c1)C[C@H](C(=O)Nc1ccc(-c3cn[nH]c3)cc1OCC1CNC1)NC2.O=C(O)C(F)(F)F.O=C(O)C(F)(F)F.O=C(O)C(F)(F)F [SR-00000006698]	6.10	3.11	< 4.85	5.81 ± 4.77%	0.29	1.33	7.81	4.82	6.56	88.34 ± 12.18%							
C=C(Nc1ccc(-c2cn[nH]c2)cc1)N(C)Cc1cccc(C(=O)CC)c1 [SR-00000007008]	1.85	1.85		−8.12 ± 2.24%						75.98 ± 6.44%	< 4.85	3.98	3.98	0.79	0.36		
COc1ccc2c(c1)C[C@H](C(=O)Nc1ccc(-c3cn[nH]c3)cc1OCCN1CCCC1)NC2.O=C(O)C(F)(F)F.O=C(O)C(F)(F)F.O=C(O)C(F)(F)F [SR-00000007044]	3.98	2.09	< 4.85	26.95 ± 5.80%	0.24	1.19	5.00	3.11	5.85	81.04 ± 10.01%							
CCC1Cc2ccc(C)cc2CC1C(=O)Nc1ccc(-c2cn[nH]c2)cc1OCCN(C)C (centres unmarked) [SR-00000007138]										109.71 ± 13.62%		5.84	4.48	0.17	0.31	7.57	Lipophilic Efficiency (logD) (parental HEK cells; HEK Agonist Activity): 3.12; Lipophilic Efficiency (logP) (parental HEK cells; HEK Agonist Activity): 1.76; Averaged Max % Response (±St. Dev.) (parental HEK cells; HEK Agonist Activity): 10.53 ± 4.93%; pEC50 (parental HEK cells; [3]): < 4.85
COc1cccc(CNC(=O)Nc2ccc(-c3ccncc3)cc2)c1.O=C(O)C(F)(F)F [SR-00000007266]	1.76	1.75	< 4.85	23.72 ± 3.44%	0.36	1.16	3.29	3.29	6.39	100.59 ± 15.12%							
Cc1cccc(CCNC(=O)c2c[nH]c3cc(-c4cn[nH]c4)ccc23)c1 [SR-00000007279]										142.11 ± 3.85%		4.81	4.80	0.18	0.38	7.37	Lipophilic Efficiency (logD) (parental HEK cells; HEK Agonist Activity): 2.30; Lipophilic Efficiency (logP) (parental HEK cells; HEK Agonist Activity): 2.29; Averaged Max % Response (±St. Dev.) (parental HEK cells; HEK Agonist Activity): 17.20 ± 7.85%; pEC50 (parental HEK cells; [3]): < 4.85
CN1CC[C@H](Oc2cc(-c3cn[nH]c3)ccc2NC(=O)N(Cc2ccccc2)C2CC2)C1.O=C(O)C(F)(F)F.O=C(O)C(F)(F)F [SR-00000007518]	2.64	1.58	< 4.85	23.13 ± 2.30%						91.59 ± 7.88%		4.71	3.64	0.81	0.30	6.92	
N#Cc1ccc(OC(=O)COc2cccc3ccccc23)cc1 [SR-01000005203]	0.91	0.91		16.23 ± 3.90%	0.38	1.01	2.24	2.24	6.19	77.18 ± 14.00%	< 4.86						
CCOC(=O)N1CCC2=C(CC(NC(=O)Cc3cccc4ccccc34)=C2C(C)=O)C1 [SR-01000011241]	1.05	1.05		1.28 ± 10.93%	0.26	1.07	1.89	1.89		63.10 ± 2.62%	< 4.85						
COc1cc(OC)cc(-c2nnc(NC(=O)Cc3cccc4ccccc34)o2)c1 [SR-01000012205]										109.87 ± 14.69%		4.06	4.05	0.93	0.36	7.46	Lipophilic Efficiency (logD) (parental HEK cells; HEK Agonist Activity): 1.43; Lipophilic Efficiency (logP) (parental HEK cells; HEK Agonist Activity): 1.43; Averaged Max % Response (±St. Dev.) (parental HEK cells; HEK Agonist Activity): 1.53 ± 2.99%; pEC50 (parental HEK cells; HEK Agonist Activity, parental non-transfected HEK cells): < 4.84
O=C(Cc1cccc2ccccc12)Nc1nnc(-c2cccs2)o1 [SR-01000012264]	1.35	1.34	< 4.84	3.88 ± 6.42%						85.12 ± 11.10%		3.36	3.36	0.80	0.40	6.86	
Cc1cc(Cl)ccc1OC(C)C(=O)NNC(=O)c1ccccc1 (centres unmarked) [SR-01000013313]										93.40 ± 11.14%		4.45	4.44	0.63	0.48	7.88	Lipophilic Efficiency (logD) (parental HEK cells; HEK Agonist Activity): 1.41; Lipophilic Efficiency (logP) (parental HEK cells; HEK Agonist Activity): 1.40; Averaged Max % Response (±St. Dev.) (parental HEK cells; HEK Agonist Activity): 2.95 ± 4.76%; pEC50 (parental HEK cells; [3]): < 4.84
Cc1ccc(Nc2cn[nH]c(=S)n2)c(C)c1 [SR-01000013346]	2.37	1.95		−4.67 ± 3.34%	0.54	0.99	3.66	3.24	6.13	74.67 ± 0.55%	< 4.84						
CCCc1ccc(NC(=O)CCc2nc3c(c(=O)n2C)CCC3)cc1 [SR-01000017533]	2.68	2.68		−1.95 ± 4.81%	0.31	1.55	3.33	3.33		69.12 ± 3.13%	< 4.85						
